# Results reported in patent US10570179B2, “Substituted urea depsipeptide analogs as activators of the CLPP endopeptidase” (priority 2016, dated 2020).
# Like-named read-outs stand apart in the source and are kept apart here. Numbered stars: 1 amine (or outer) side, 2 acyl side, 3 side chain; on linkers, the order of the positions; unused ones are H or OH. Bridge positions count the residues as written; N and C are the ends. Square brackets hold non-standard residues; d marks the D form. Peptide text beside a SMILES is read from it. * marks the point of attachment. Phe(3-Me) = Cc1cccc(C[C@H](N)C(=O)O)c1; Pro(4S-Me) = C[C@@H]1CN[C@H](C(=O)O)C1; Pro(4R-Me) = C[C@H]1CN[C@H](C(=O)O)C1; Hyp = O=C(O)[C@@H]1C[C@@H](O)CN1; NH(3-Cl-phenyl) = Clc1cccc(N*)c1; NH(4-Cl-phenyl) = Clc1ccc(N*)cc1; NH(4-Et-phenyl) = CCc1ccc(N*)cc1; aThr = C[C@H](O)[C@H](N)C(=O)O; Pip = O=C(O)[C@@H]1CCCCN1; CO = O=C([*:1])[*:2]
# Assays:
# S. aureus ClpP (Sa-ClpP) = biological target: T1, S. aureus ClpP (Sa-ClpP) (Staphylococcus aureus, UniProt Q2G036); experiment: Casein-BODIPY digestion assay (ClpP activation); type: biochemical
# T1 construct: made in house; host or cells: E. coli BL21 (DE3)
# T1 sequence (Q2G036 whole entry): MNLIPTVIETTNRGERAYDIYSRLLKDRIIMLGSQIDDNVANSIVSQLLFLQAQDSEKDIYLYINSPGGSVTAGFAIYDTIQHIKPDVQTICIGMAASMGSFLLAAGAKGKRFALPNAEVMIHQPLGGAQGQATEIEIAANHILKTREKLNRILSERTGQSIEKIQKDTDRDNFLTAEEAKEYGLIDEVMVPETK
# Protocol: The compounds were assayed in a casein digestion assay in order to determine their effect on ClpP activation. Briefly, the assay was carried out using S. aureus ClpP (“Sa-ClpP”) overexpressed in E. coli BL21 (DE3) and purified in a two-step process. Purity of the protein was assessed through SDS PAGE analysis. EC50 evaluations were conducted in triplicate in a 20 μl assay format using a method adapted from Maurizi et al. (Methods Enzymol. (1994) 244:314-331). Each well contained 10 μM saClpP, 25 μg/ml BODIPY FL casein (Invitrogen Corporation, San Diego, Calif.), and test compound in concentrations ranging between 0-1000 μM in assay buffer (50 mM Tris pH 8, 200 mM KCl, and 1 mM TCEP). The reaction took place at 37° C. Fluorescence (excitation 485 nm; emission 528 nm) was measured in five minute intervals over a 45 min period using a BioTek HT fluorescence microplate reader (BioTek Instruments, Inc., Winooski, Vt.). Velocity of each reaction was calculated and data was fit to a dose response curve using GraphPad Prism® software (GraphPad Software, Inc., La Jolla, Calif.). EC50 is the effective concentration of compound which causes 50% activation of S. aureus ClpP in the foregoing BODIPY FL casein assay.
# Alternatively, the assay was carried out using EnzCheck Protease Assay (Molecular Probes, Catalog # E6638). The assay was performed in black 384 well, flat bottom, low volume plates (Greiner Bio-One, Monroe, N.C., catalog #784076). 10 μL of Tris.HCl buffer, pH 8.0 with 0.01% Triton X-100 was pipetted into each well using a Well-Mate (Thermo Scientific, Waltham, Mass.). 0.4 μL test compounds or controls (2% DMSO v/v) were added to each well using a Biomek FX liquid handling robot (Beckman Coulter, Indianapolis, Ind.). After addition of test compounds and controls, 10 μL of master mix containing 2 μM Sa-ClpP and 2 μM substrate (Bodipy-FL labeled casein) in Tris.HCl buffer, pH 8.0 with 0.01% (v/v) Triton X-100, was pipetted into each well. All assays were performed in triplicate, under linear velocity conditions. Increase in fluorescent signal following activation of Sa-ClpP by test compounds and controls was measured over time period of 30 mins using filters with excitation at 485±15 nm and emission at 520±25 nm on a PHERAstar FS Multilabel reader (BMG, Cary, N.C.). Instrument gains and enzyme linear velocity conditions were determined and validated using ADEP4, a known Sa-ClpP activator. Data analysis was done by measuring rate of casein degradation over time (slopes). Computed degradation rates (slopes) were normalized to positive (ADEP4) or negative (DMSO) controls. Using nonlinear regression curve fitting EC50 values and % activation were determined using the equation “log [agonist] vs. Response-variable slope (four parameters)-symmetrical” in the program Prism 6 (GraphPad Software, La Jolla, Calif. USA, www.graphpad.com).
# S. aureus ΔClpP = experiment: Minimal inhibitory concentration, microbroth dilution; type: cell-based, Staphylococcus aureus; conditions: MIC; ClpP inactivated
# Protocol: (§1) Minimal inhibitory concentrations (“MICs”) were determined using the microbroth dilution method according to Clinical Laboratory Standards Institute (CLSI; National, C.F. C. L. S., Methods for Dilution Antimicrobial Susceptibility Tests for Bacteria Grow aerobically-Seventh Edition: Approved Standard M7-A7, CLSI, Wayne, Pa., USA, 2008) and were read by visual inspection. Two fold serial dilutions of test compound in 100 μL of the appropriate broth media were first prepared in 96-well round bottom microtiter plates (Nalgene Nunc International, Rochester, N.Y., USA). An equivalent volume (100 μL) of bacterial broth inocula containing approximately 10^5 bacterial cfu/mL was added to each well to give final concentrations of test compound starting at 200 μM. The plates were then incubated aerobically at 37° C. All strains were incubated overnight. After incubations, in all cases the MIC was recorded as the lowest concentration of drug that prevented bacterial growth. The bacterial strains for which MIC was determined as described in Table 4.
# S. aureus ATCC 29213 = experiment: as above; type: cell-based; conditions: Staphylococcus aureus
# Protocol: as §1
# S. aureus USA 300 = experiment: as above; type: cell-based; conditions: Staphylococcus aureus
# Protocol: as §1
# MRSA NRS70 = experiment: as above; type: cell-based; conditions: Staphylococcus aureus
# Protocol: as §1
# E. faecails = experiment: as above; type: cell-based; conditions: Enterococcus faecalis
# Protocol: as §1
# [1] = ATCC29213, MIC, read-out: Minimal Inhibitory Concentrations (μM) S. aureus ATCC 29213
# [2] = USA300, MIC, read-out: Minimal Inhibitory Concentrations (μM) S. aureus USA 300
# [3] = MIC, read-out: Minimal Inhibitory Concentrations (μM) MRSA NRS70
# [4] = MIC, read-out: Minimal Inhibitory Concentrations (μM) E. faecails
# [5] = ATCC29213, read-out: Minimal Inhibitory Concentrations (μM) S. aureus ATCC 29213, MIC
# [6] = USA300, read-out: Minimal Inhibitory Concentrations (μM) S. aureus USA 300, MIC
# [7] = read-out: Minimal Inhibitory Concentrations (μM) MRSA NRS70, MIC
# [8] = read-out: Minimal Inhibitory Concentrations (μM) E. faecails, MIC
SMILES,EC50 (S. aureus ClpP (Sa-ClpP)) [nM],Minimal Inhibitory Concentrations (μM) S. aureus ΔClpP (S. aureus ΔClpP) [µM],MIC (S. aureus ATCC 29213; [1]) [µM],MIC (S. aureus USA 300; [2]) [µM],MIC (MRSA NRS70; [3]) [µM],MIC (E. faecails; [4]) [µM],MIC (S. aureus ATCC 29213; [5]) [µM],MIC (S. aureus USA 300; [6]) [µM],MIC (MRSA NRS70; [7]) [µM],MIC (E. faecails; [8]) [µM]
"CCc1ccc(NC(=O)N[C@@H](Cc2cccc(C)c2)C(=O)N[C@@H]2C(=O)N3C[C@H](O)C[C@H]3C(=O)N3CCCC[C@H]3C(=O)N[C@@H](C)C(=O)N3CCC[C@H]3C(=O)O[C@H]2C)cc1 [Compound 58, (S)-2-(3-(4-ETHYLPHENYL)UREIDO)-N-((6S,8AS,14AS,16R,20S,21S,23AS)-16-HYDROXY-6,21-DIMETHYL-5,8,14,19,23-PENTAOXOOCTADECAHYDRO-1H,5H,14H,19H-PYRIDO[2,1-I]DIPYRROLO[2,1-C:2′,1′-L][1]OXA[4,7,10,13]TETRAAZACYCLOHEXADECIN-20-YL)-3-(M-TOLYL)PROPANAMIDE] ({NH(4-Et-phenyl)-CO}-[Phe(3-Me)][aThr][Hyp][Pip]AP; ester 2-C)",270 ± 100,>20,2.5,0.625,0.625,2.5,–,–,–,–
"Cc1cccc(C[C@H](NC(=O)Nc2ccc(Cl)cc2)C(=O)N[C@@H]2C(=O)N3C[C@H](O)C[C@H]3C(=O)N3CCCC[C@H]3C(=O)N[C@@H](C)C(=O)N3C[C@H](C)C[C@H]3C(=O)O[C@H]2C)c1 [Compound 61, (S)-2-(3-(4-CHLOROPHENYL)UREIDO)-N-((2R,6S,8AS,14AS,16R,20S,21S,23AS)-16-HYDROXY-2,6,21-TRIMETHYL-5,8,14,19,23-PENTAOXOOCTADECAHYDRO-1H,5H,14H,19H-PYRIDO[2,1-I]DIPYRROLO[2,1-C:2′,1′-L][1]OXA[4,7,10,13]TETRAAZACYCLOHEXADECIN-20-YL)-3-(M-TOLYL)PROPANAMIDE] ({NH(4-Cl-phenyl)-CO}-[Phe(3-Me)][aThr][Hyp][Pip]A[Pro(4R-Me)]; ester 2-C)",270 ± 100,>20,–,–,–,–,0.156,0.156,0.156,2.5
"Cc1cccc(C[C@H](NC(=O)Nc2cccc(Cl)c2)C(=O)N[C@@H]2C(=O)N3C[C@H](O)C[C@H]3C(=O)N3CCCC[C@H]3C(=O)N[C@@H](C)C(=O)N3C[C@H](C)C[C@H]3C(=O)O[C@H]2C)c1 [Compound 62, (S)-2-(3-(3-CHLOROPHENYL)UREIDO)-N-((2R,6S,8AS,14AS,16R,20S,21S,23AS)-16-HYDROXY-2,6,21-TRIMETHYL-5,8,14,19,23-PENTAOXOOCTADECAHYDRO-1H,5H,14H,19H-PYRIDO[2,1-I]DIPYRROLO[2,1-C:2′,1′-L][1]OXA[4,7,10,13]TETRAAZACYCLOHEXADECIN-20-YL)-3-(M-TOLYL)PROPANAMIDE] ({NH(3-Cl-phenyl)-CO}-[Phe(3-Me)][aThr][Hyp][Pip]A[Pro(4R-Me)]; ester 2-C)",420 ± 100,>20,–,–,–,–,1.25,0.625,0.625,2.5
"Cc1cccc(C[C@H](NC(=O)Nc2ccc(Cl)cc2)C(=O)N[C@@H]2C(=O)N3CCC[C@H]3C(=O)N3CCCC[C@H]3C(=O)N[C@@H](C)C(=O)N3C[C@H](C)C[C@H]3C(=O)O[C@H]2C)c1 [Compound 63, (S)-2-(3-(4-CHLOROPHENYL)UREIDO)-3-(M-TOLYL)-N-((2R,6S,8AS,14AS,20S,21S,23AS)-2,6,21-TRIMETHYL-5,8,14,19,23-PENTAOXOOCTADECAHYDRO-1H,5H,14H,19H-PYRIDO[2,1-I]DIPYRROLO[2,1-C:2′,1′-L][1]OXA[4,7,10,13]TETRAAZACYCLOHEXADECIN-20-YL)PROPANAMIDE] ({NH(4-Cl-phenyl)-CO}-[Phe(3-Me)][aThr]P[Pip]A[Pro(4R-Me)]; ester 2-C)",400 ± 200,>20,–,–,–,–,0.625,0.313,0.313,0.313
"Cc1cccc(C[C@H](NC(=O)Nc2cccc(Cl)c2)C(=O)N[C@@H]2C(=O)N3CCC[C@H]3C(=O)N3CCCC[C@H]3C(=O)N[C@@H](C)C(=O)N3C[C@H](C)C[C@H]3C(=O)O[C@H]2C)c1 [Compound 64, (S)-2-(3-(3-CHLOROPHENYL)UREIDO)-3-(M-TOLYL)-N-((2R,6S,8AS,14AS,20S,21S,23AS)-2,6,21-TRIMETHYL-5,8,14,19,23-PENTAOXOOCTADECAHYDRO-1H,5H,14H,19H-PYRIDO[2,1-I]DIPYRROLO[2,1-C:2′,1′-L][1]OXA[4,7,10,13]TETRAAZACYCLOHEXADECIN-20-YL)PROPANAMIDE] ({NH(3-Cl-phenyl)-CO}-[Phe(3-Me)][aThr]P[Pip]A[Pro(4R-Me)]; ester 2-C)",430 ± 200,>20,–,–,–,–,0.625,1.25,0.625,10
"CCc1ccc(NC(=O)N[C@@H](Cc2cccc(C)c2)C(=O)N[C@@H]2C(=O)N3C[C@H](O)C[C@H]3C(=O)N3CCCC[C@H]3C(=O)N[C@@H](C)C(=O)N3C[C@@H](C)C[C@H]3C(=O)O[C@H]2C)cc1 [Compound 65, (S)-2-(3-(4-ETHYLPHENYL)UREIDO)-N-((2S,6S,8AS,14AS,16R,20S,21S,23AS)-16-HYDROXY-2,6,21-TRIMETHYL-5,8,14,19,23-PENTAOXOOCTADECAHYDRO-1H,5H,14H,19H-PYRIDO[2,1-I]DIPYRROLO[2,1-C:2′,1′-L][1]OXA[4,7,10,13]TETRAAZACYCLOHEXADECIN-20-YL)-3-(M-TOLYL)PROPANAMIDE] ({NH(4-Et-phenyl)-CO}-[Phe(3-Me)][aThr][Hyp][Pip]A[Pro(4S-Me)]; ester 2-C)",410 ± 100,>20,0.313,0.156,0.156,1.25,–,–,–,–
